Results published in patent EP0746567B1, “NOVEL OPIOID PEPTIDES FOR THE TREATMENT OF PAIN AND USE THEREOF” (AstraZeneca AB, priority 1994, dated 2002).
Non-standard residues stand in square brackets, D forms with d. Residues, ends and D or L forms follow the SMILES beside them.

Tested on: hot plate response
Assay: Hot plate test (central analgesia)
Format: in vivo
Conditions: mouse hot plate test, even at doses of 100mg/kg
Text: It was thought that non-polar peptides pass more easily into the central nervous system than polar peptides by traversing the blood-brain barrier. […] This test is standard and known to persons skilled in the art. The test detects chemicals that exert a centrally mediated analgesic response.
The term "ED50" as shown in table 1 for the PBQ writhing assays is defined as the dose of drug which induces a 50% reduction in the number of writhes observed compared to the control.
PBQ (phenylbenzoquinone) induced writhing in mice is an assessment of both central and peripheral analgesia. For experimental protocol see Sigmund et al., Proc. Soc. Exp. Biol. Med., 95, p. 729 (1957). Central analgesia was determined by the inhibition of a hot plate response in mice. For experimental protocol see G. Woolfe and A. Macdonald, J. Pharmacol. Exp. Ther., 80, p.300 (1944). Assays measuring opioid receptor binding affinities for µ and δ receptors as well as GPI and MVD assays were determined through experimental protocol set out in Schiller et al., Biophys. Res. Commun., 85, p.1322 (1975). […]
The mice were individually evaluated for reaction time on the hot plate. […]
For each time reading, the average reaction time of the control group was multiplied by 1.5. […] The number of analgesic mice in a group determined the analgesic percentage of the compound for this reading.

For `C[C@@H](NC(=O)[C@@H](N)Cc1ccc(O)cc1)C(=O)N[C@@H](Cc1ccccc1)C(=O)N[C@@H](Cc1ccccc1)C(N)=O` [TAPP, H-Tyr-D-Ala-Phe-Phe-NH2] (H-Y[dA]FF-NH2), the analgesic effect was “lack of analgesic effect”.
